Earlier results in patent publication EP3599609A1, “SYSTEM AND METHOD FOR CLEANING NOISY GENETIC DATA AND USING DATA TO MAKE PREDICTIONS” (Natera, Inc., priority 2005, dated 2007).

Details: colon cancer patients treated with irinotecan

## CCc1c2c(nc3ccc(OC(=O)N4CCC(N5CCCCC5)CC4)cc13)-c1cc3c(c(=O)n1C2)COC(=O)[C@]3(O)CC [irinotecan]
  severe diarrhea, patients affected: 31%
  severe neutropenia, patients affected: 28%
